The values that follow come from article PMC12929930, “Conformational Trajectory of the Molecular Chameleon Grazoprevir From Formulation to Target‐Bound” (Chemistry (Weinheim an Der Bergstrasse, Germany), 2025).

Series [1] is classed as physicochemical. The conditions noted are these: pH 7.4. The source says: (§1) Solubility and Cell permeability
(§2) The thermodynamic aqueous solubility, LogD and cell permeability across MCDCK cell monolayers
(§3) Table S21. MCDCK permeability data and efflux ratios (ERs) for grazoprevir.
Solubility LogD7.4[b] PappAB (x10-6 ER[d] […]
[b] Determined using a miniaturized shake-flask procedure. Values are means from three repeats. […]

For series [2], the system named is MCDCK cell monolayers. Format: in vitro ADME.
Text: as §1, §2, §3
(§4) Solubility LogD7.4[b] PappAB (x10-6 ER[d]
[a] Determined in aqueous potassium phosphate buffer at pH 7.4. Values are means ± std from three repeats.
[b] Determined using a miniaturized shake-flask procedure. Values are means from three repeats.
[c] Papp AB: permeability in the apical-to-basolateral (AB) direction across MCDCK cell monolayers. Values are
means + std from three repeats.
[d] ER: efflux ratio (Papp BA/Papp AB).

The format of series [3] is physicochemical. The conditions noted are these: pH 7.4.
Text: as §1, §2, §3, §4
[a] Determined in aqueous potassium phosphate buffer at pH 7.4. Values are means ± std from three repeats. […]
This is another data set of the same source.

For series [4] the following is noted: cited from earlier work; for SA 3D PSA variation between solution conformations / spread in Rgyr for the solution ensembles: solution ensembles. The source says: Grazoprevir (Figure 1a) is a second‐generation hepatitis C virus (HCV) nonstructural 3/4A (NS3/NS4A) protease inhibitor developed by Merck in 2012 and approved by the FDA in 2016 as part of an orally administered combination therapy with elbasvir. Like most NS3/NS4A protease inhibitors, grazoprevir is orally available despite its limited water solubility (Table S21). The potential chameleonicity of grazoprevir has not yet been structurally characterized. Determining the structures of bRo5 inhibitors like grazoprevir in various states is crucial for understanding their chame ... || For bRo5‐drugs, 3D descriptors such as the R gyr as a measure of size instead of molecular weight, and the SA 3D PSA instead of the number of hydrogen bond donors and acceptors, often provide a better view to explain their aqueous solubility and membrane permeability. Even though the exact values of the R gyr and SA 3D PSA for a single conformation might not be informative, they can give a perspective when compared for conformations between solvents or between similar compounds [6, 23]. In solution the SA 3D PSA varies by 79 Å^2 (Supporting information Figure S13) between the c ...

Series [5] has as its system MCDCK cell monolayers. The conditions noted are these: comparison value quoted in Conclusions; not in the printed Table S21; cited from earlier work. The source says:
This study presents a comprehensive analysis of a macrocyclic drug's conformational journey by experimental means; from the solid state, through solution environments, to the target‐bound state. […] By determining solution‐state ensembles of grazoprevir in both polar and apolar environments—mimicking extracellular and membrane‐like conditions—and comparing these to previously repo ...

The mark [6] stands for this setting: conformations assessed computationally.

SMILES strings stand for the structures. Like-named read-outs stand apart in the source and are kept apart here.

For orientation: Solubility means the dissolved amount per volume that the medium holds. The compound `C=C[C@@H]1C[C@]1(NC(=O)[C@@H]1C[C@@H]2CN1C(=O)[C@H](C(C)(C)C)NC(=O)O[C@@H]1C[C@H]1CCCCCc1nc3ccc(OC)cc3nc1O2)C(=O)NS(=O)(=O)C1CC1.O` [grazoprevir, Grazoprevir] displayed a LogD7.4 in series [1] of 3.4. For the same compound, in the series with MCDCK cell monolayers [2], the “ER (efflux ratio, Papp BA/Papp AB)” value was 3.1; the PappAB was 5.9 ± 0.89 x10-6 cm/s; the passive membrane permeability is 5.9 ×10⁻⁶ cm/s. The compound also showed a Solubility in series [3] of 12.9 ± 2.6 µM.
On to `Cc1cnc(C(=O)N[C@H]2CCCCC/C=C\[C@@H]3C[C@@]3(C(=O)NS(=O)(=O)C3CC3)NC(=O)[C@@H]3C[C@@H](Oc4nc5ccccc5c5ccccc45)CN3C2=O)cn1` [paritaprevir], for which, in series [4] (setting [6]), the “Rgyr range for the solution conformations (polar-to-apolar span)” value is 0.36 Å and the “SA 3D PSA polar-to-apolar span” value is 76 Å^2.
Take `C=C[C@@H]1C[C@]1(NC(=O)[C@@H]1C[C@@H](Oc2ncc(OC)c3ccc(Cl)cc23)CN1C(=O)[C@@H](NC(=O)OC(C)(C)C)C(C)(C)C)C(=O)NS(=O)(=O)C1CC1` [asunaprevir]: in series [4], the “SA 3D PSA variation between solution conformations” value was 88 Å^2 and the “spread in Rgyr for the solution ensembles” value was 1.22 Å.
Take `COc1ccc2c(O[C@@H]3C[C@H]4C(=O)N[C@]5(C(=O)NS(=O)(=O)C6CC6)C[C@H]5/C=C\CCCCN(C)C(=O)[C@@H]4C3)cc(-c3nc(C(C)C)cs3)nc2c1C` [simeprevir]: the passive membrane permeability in the series on MCDCK cell monolayers [5] was 0.5 ×10⁻⁶ cm/s. Besides, in series [4], the “SA 3D PSA variation between solution conformations” value is on record as 72 Å^2 and the “spread in Rgyr for the solution ensembles” value is given as 1.11 Å.
